Experimental data taken from patent publication US11793218B2, “Sweetener and flavor compositions, methods of making and methods of use thereof” (EPC Natural Products Co., Ltd., priority 2018, dated 2023).

How the values were obtained:
[1] = Sensory analysis of odor/smell, color and taste of Maillard reaction samples at 22 C (Examples 55-62); type: in vivo, human
[2] = as above; type: in vivo, human; remark: listed apart in the source
Experimental: The reaction partners were dissolved in water and then warmed glycerin (60° C.) was added. […]
[…] After 20 minutes in the ice bath the sealed vials were put in a water bath set to 22° C.
The odor/smell was assessed independently by 3 persons; the final description was agreed after discussion. […] The taste was assessed independently by 3 persons either in the original samples or after appropriate dilution to achieve relevant concentrations of sugars and steviol-glycosides (i.e. 5-9% SE); the final description was agreed after discussion.

[3] = Sensory evaluation of the samples prepared in Example 50 (Example 52); type: in vivo, human; set-up: key to Intensity of Smell: “+” for slight; “++” for moderate; “+++” for very strong
Experimental: The reaction partner (amino acid, carbohydrate source) were dissolved/suspended in the reaction solvent and transferred into a glass beaker filled with sand pre-heated for at least 30 minutes at the reaction temperature in a drying oven. After the planned reaction time, the vials were transferred into ice water. After cooling to room temperature, sensory analysis and analytical characterization was performed.
For evaluation of the taste profile, the samples were tested by a panel of four people. 1 trained taster tasted independently the samples first. The taster was asked to describe the taste profile and score 0-5 according to the increasing sugar likeness, bitterness, aftertaste and lingering taste profiles. The first taster was allowed to re-taste, and then make notes for the sensory attributes perceived. Afterwards, another 3 tasters tasted and the attributes were noted and discussed openly to find a suitable description. In case that more than 1 taster disagreed with the results, the tasting was repeated. In some sensory test results (above), the taste rating was expressed by “+”, which means the intensity of the factors is shown by three levels. “+” for slight, “++” for moderate and “+++” for very strong.

[4] = cited from earlier work
[5] = Assay to test reducing power (active iron-III reduction), Example 64; type: physicochemical; settings: 100° C., up to 5.0 hours, diluted 1:10; FIG. 49
[6] = DPPH radical-scavenging activity, Example 65; type: physicochemical; settings: 100° C., up to 5.0 hours, diluted 1:10; FIG. 50
Experimental: 1 mg 1,1-Diphenyl-2-picrylhydrazyl radical (DPPH)/ml ethanol, dilution to assay concentration were prepared in ethanol (40 μg/mL); Calibration samples were prepared with Ascorbic acid in a concentration of 0-10 μg/mL; as a negative control sample, water was used.
Samples in aqueous solution were used as such or diluted with water.
A 0.1 ml sample (or calibration standard) was mixed with 3.9 ml solution of DPPH (100 μMolar) and reacted while protected from light at room temperature for 30 min. Absorbance was determined at 517 nm against ethanol.
10 mM of amino acid and/or 10 mM sugar were dissolved in 10 ml 0.1 mM KH2PO4-buffer, pH=7.8.
The samples were kept at 100° C. in sealed glass vials (Pyrex 15 ml with screw caps) for 0 (before reaction), 2.5 or 5.0 hours. Thereafter the samples were transferred to an ice water bath and cooled down to room temperature. These samples were diluted 1:10 and used for the test assay for anti-oxidant potential.

[7] = HPLC/DAD/MS detection of MRI (Amadori) products and degradation kinetics of reactants at various pH-conditions; settings: reaction of Phe and Xyl
[8] = Sensory evaluation of GSGs and SGs, Thaumatin, NHDC and combinations in water (Example 255); type: in vivo, human
Experimental: 4.5 ppm Thaumatin (equivalent to 10 ppm EPCalin) was dissolved in water. Increasing amounts of NHDC (1-5 ppm) were added to the solution and the sensory properties were evaluated.
50 ppm (GSGs and SGs) were dissolved in water. Increasing amounts of NHDC (1-5 ppm) were added to the solution and the sensory properties were evaluated.
50 ppm (GSGs and SGs) and 4.5 ppm Thaumatin (equivalent to 10 ppm EPCalin) were dissolved in water. Increasing amounts of NHDC (1-5 ppm) were added to the solution and the sensory properties were evaluated.
Sweetness intensity was rated on 5-point scale
Sweetness intensity was rated on a 5-point scale

[9] = Table 57.2, before reaction, 10 ml KH2PO4, pH 7.8
[10] = Table 56.1, negative controls (no carbohydrate source), 10 ml glycerin/water=9:1, 100° C., 40 minutes
[11] = Table 52.2, 1 ml water + 9 ml Glycerin, 0.67 h, 100° C.
[12] = Table 57.3, after reaction, 10 ml KH2PO4, pH 7.8, 2.5 h, 120° C.
[13] = Table 52.5, 1 ml water + 9 ml Glycerin, 2.0 h, 120° C.
[14] = Table 52.6, Glycerin 10 ml, 100° C., 40 min
[15] = Table 52.7, Glycerin 10 ml, 1 h, 120° C.
[16] = Table 52.1, samples of Example 50 after reaction

Molecule: N[C@@H](Cc1ccccc1)C(=O)O [16.5 mg Phe]
- Smell [1, 9]: neutral
- Taste [1, 9]: No taste
- Smell ([2]; Example 58, after reaction): Caramel, burnt
- Taste ([2]; Example 58, after reaction, after dilution 1:20): Sweet
- Smell ([2]; Example 58, before reaction): Neutral
- Smell [2, 10]: Bloomy, caramel
- Taste [2, 10]: Slightly sweet

Molecule: C[C@H](N)C(=O)O [8.91 mg Ala]
- Taste [2, 10]: Slightly sweet

Molecule: N[C@@H](CS)C(=O)O [12.1 mg Cys]
- Smell [2, 10]: Unpleasant (sulfur)
- Taste [2, 10]: Slightly sweet

Molecule: C[C@H](N)C(=O)O [0.1 mMol Ala]
- Smell [3, 11]: Agar
- Taste [3, 11]: sweet

Molecule: CC[C@H](C)[C@H](N)C(=O)O [13.11 mg Ile]
- Smell [2, 10]: Coffee
- Taste [2, 10]: Slightly sweet

Molecule: CC1(C)[C@@H](O[C@H]2O[C@H](C(=O)O)[C@@H](O)[C@H](O)[C@H]2O[C@@H]2O[C@H](C(=O)O)[C@@H](O)[C@H](O)[C@H]2O)CC[C@]2(C)[C@H]3C(=O)C=C4[C@@H]5C[C@@](C)(C(=O)O)CC[C@]5(C)CC[C@@]4(C)[C@]3(C)CC[C@@H]12 [Glycyrrhizin, reference compound]
- times sweeter than sucrose (sugar) ([4]; sweetness depends on the tested concentration compared with sucrose): 30 to 50 times

Molecule: N[C@@H](Cc1c[nH]c2ccccc12)C(=O)O [20.42 mg Try]
- Smell [2, 10]: Unpleasant (fecal)
- Taste [2, 10]: Slightly sweet

Molecule: O=C1O[C@@H]2[C@@H](O)[C@H](O)O[C@@H]2C1O (stereo partly drawn) [Glucuronolactone]
- Smell [1, 12]: Burnt sugar
- Taste [1, 12]: Bitter

Molecule: O=C(O)[C@@H]1CCCN1 [11.5 mg Pro]
- Taste [2, 10]: Slightly sweet

Molecule: O=C[C@H](O)[C@H]1OC(=O)[C@@H](O)[C@H]1O [0.1 mMol GlucLac]
- Smell [3, 13]: Burnt sugar

Molecule: N[C@@H](Cc1ccccc1)C(=O)O [0.1 mMol Phe]
- Intensity of Smell [3, 13]: +
- Smell [3, 13]: Caramel, burnt

Molecule: C=C1C[C@@]23CC[C@H]4[C@@](C)(CCC[C@@]4(C)C(=O)O[C@@H]4O[C@H](CO)[C@@H](O)[C@H](O)[C@H]4O)[C@@H]2CC[C@]1(O[C@@H]1O[C@H](CO)[C@@H](O)[C@H](O[C@@H]2O[C@H](CO)[C@@H](O)[C@H](O)[C@H]2O)[C@H]1O[C@@H]1O[C@H](CO)[C@@H](O)[C@H](O)[C@H]1O)C3 [0.05 mMol Reb-A]
- Smell [3, 11]: neutral/unpleasant
- Taste [3, 11]: sweet

Molecule: CSCC[C@H](N)C(=O)O [14.9 mg Met]
- Smell [2, 10]: Sulfuric
- Taste [2, 10]: Slightly sweet

Molecule: OC[C@H]1OC(O)[C@H](O)[C@@H](O)[C@@H]1O (stereo partly drawn) [9 mg Glucose]
- Smell [1, 9]: neutral
- Taste [1, 9]: Sweet

Molecule: N[C@@H](Cc1ccc(O)cc1)C(=O)O [18.1 mg Tyr]
- Smell [2, 10]: neutral
- Taste [2, 10]: Slightly sweet

Molecule: OC[C@H]1OC(O)[C@H](O)[C@@H](O)[C@@H]1O (stereo partly drawn) [10 mMol Glu]
- Smell [3, 14]: Slightly Caramel
- Smell [3, 15]: Slightly Caramel

Molecule: O=C[C@H](O)[C@@H](O)[C@H](O)[C@H](O)C(=O)O [Glucuronic Acid]
- Smell [1, 12]: burnt bread
- Taste [1, 12]: Bitter

Molecule: C[C@@H](O)[C@H](N)C(=O)O [11.91 mg Thr]
- Smell [2, 10]: Vanilla, butter
- Taste [2, 10]: Slightly sweet

Molecule: C=C1C[C@@]23CC[C@H]4[C@@](C)(CCC[C@@]4(C)C(=O)O[C@@H]4O[C@H](CO)[C@@H](O)[C@H](O)[C@H]4O)[C@@H]2CC[C@]1(O[C@@H]1O[C@H](CO)[C@@H](O)[C@H](O[C@@H]2O[C@H](CO)[C@@H](O)[C@H](O)[C@H]2O)[C@H]1O[C@@H]1O[C@H](CO)[C@@H](O)[C@H](O)[C@H]1O)C3 [Reb-A, Rebaudioside A]
- active iron-III reduction (anti-oxidant properties) [5]: substantial anti-oxidant properties
- radical scavenging properties (anti-oxidant properties) [6]: substantial anti-oxidant properties

Molecule: O=C[C@H](O)[C@@H](O)[C@H](O)CO [Xyl]
- % degradation ([7]; pH = 5.5): 4.59%
- % degradation ([7]; pH = 7.0): 6.3%
- % degradation ([7]; pH = 8.5): 9.47%

Molecule: NC(=O)CC[C@H](N)C(=O)O [14.62 mg Gln]
- Taste [2, 10]: Slightly sweet

Molecule: COc1ccc(CCC(=O)c2c(O)cc(O[C@@H]3O[C@H](CO)[C@@H](O)[C@H](O)[C@H]3O[C@@H]3O[C@@H](C)[C@H](O)[C@@H](O)[C@H]3O)cc2O)cc1O [NHDC, Neohesperidin dihydrochalcone, reference compound]
- sensory properties (sweetness, onset, mouth-feel, lingering) ([8]; in water, 4.5 ppm Thaumatin and/or 50 ppm GSGs and SGs with NHDC): long lasting lingering

Molecule: NCCCC[C@H](N)C(=O)O [14.7 mg Lys]
- Smell [2, 10]: Popcorn
- Taste [2, 10]: Slightly sweet

Molecule: N[C@@H](CCC(=O)O)C(=O)O [167 mMol Glu]
- Smell [3, 16]: caramel
- Taste [3, 16]: Sweet

Molecule: N[C@@H](Cc1ccccc1)C(=O)O [3.3 mMol Phe]
- Smell ([3]; Table 52.6, Glycerin 10 ml, 100° C., 5 min): Slightly bloomy
- Smell ([3]; Table 52.6, Glycerin 10 ml, 100° C., 10 min): flowery/bloomy
- Smell ([3]; Table 52.6, Glycerin 10 ml, 100° C., 20 min): flowery/bloomy
- Smell [3, 14]: flowery/bloomy
- Smell [3, 15]: flowery/bloomy

Molecule: N[C@H](Cc1ccccc1)C(=O)O [Phe]
- Taste [1, 12]: sweet

Molecule: N[C@@H](Cc1ccccc1)C(=O)O [Phe 60 mMol]
- Smell [3, 16]: flowery/bloomy-caramel
- Taste [3, 16]: Sweet

Molecule: COc1ccc(CCC(=O)c2c(O)cc(O[C@@H]3O[C@H](CO)[C@@H](O)[C@H](O)[C@H]3O[C@@H]3O[C@@H](C)[C@H](O)[C@@H](O)[C@H]3O)cc2O)cc1O [10 ppm NHDC]
- Sensory evaluation ([8]; combinations of EPCalin and NHDC in water): Sweet, steep onset of sweetness, no lingering

Molecule: N[C@@H](CO)C(=O)O [10.5 mg Ser]
- Smell [2, 10]: Lotus flower
- Taste [2, 10]: Slightly sweet

B1: Miraculin: A protein that does not taste sweet by itself but modifies taste receptors to make sour things taste sweet temporarily (protein, UniProt P13087 30-220, looked up)
Miraculin: DSAPNPVLDIDGEKLRTGTNYYIVPVLRDHGGGLTVSATTPNGTFVCPPRVVQTRKEVDHDRPLAFFPENPKEDVVRVSTDLNINFSAFMPCRWTSSTVWRLDKYDESTGQYFVTIGGVKGNPGPETISSWFKIEEFCGSGFYKLVFCPTVCGSCKVKCGDVGIYIDQKGRRRLALSDKPFAFEFNKTVYF
- Notes (sweet taste) ([4]; in vivo): A protein that does not taste sweet by itself
